What was measured:
[1] = test system: Chinese sprangletop; test: Test Example 3: herbicidal effect by foliage application, Wagner pot (Table 18, symbol D); assay type: in vivo, chinese sprangletop (Leptochloa chinensis); conditions: 320 g/ha
Procedure, shortened: (§1)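 Plants were sown in alluvial soil held under 0.1–0.5 cm standing water and grown 14 days in a greenhouse at 25–30 °C. An emulsifiable formulation, water-diluted to the set dose, was then sprayed onto the foliage, and effects were scored three weeks later using previously defined criteria.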

[2] = test system: chickweed; test: Test Example 4: herbicidal effect by soil treatment (Table 19, symbol P); assay type: in vivo, common chickweed (Stellaria media); conditions: amount of applied herbicide 320 g/ha
Procedure, shortened: (§2)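 Step 1: sow seeds in sterilized diluvial soil, cover ~1.5 cm. Step 2: spray diluted emulsion onto soil surface at predetermined rate. Step 3: greenhouse, 25–30° C, three weeks. Step 4: grade effect on each plant by earlier criteria.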

[3] = test system: false cleavers; test: Test Example 4: herbicidal effect by soil treatment (Table 19, symbol Q); assay type: in vivo, false cleavers (Galium spurium); conditions: amount of applied herbicide 320 g/ha
Procedure, shortened: as §2

[4] = test system: persian speedwell; test: Test Example 4: herbicidal effect by soil treatment (Table 19, symbol R); assay type: in vivo, Persian speedwell (Veronica persica); conditions: amount of applied herbicide 320 g/ha
Procedure, shortened: as §2

[5] = test system: redroot pigweed; test: Test Example 5: herbicidal effect by foliage application, plastic box (Table 20, symbol N); assay type: in vivo, redroot pigweed (Amaranthus retroflexus); conditions: foliage application, three weeks after application
Procedure, shortened: (§3)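 Foliar spray test: emulsion formulation diluted in water to a set application rate, sprayed onto 14-day-old plants raised in diluvial soil at 25° C to 30° C under glass. Both herbicidal effect and crop effect rated visually three weeks later.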

[6] = test system: barnyard grass; test: Test Example 5: herbicidal effect by foliage application, plastic box (Table 20, symbol H); assay type: in vivo, barnyard grass (Echinochloa crus-galli); conditions: foliage application, three weeks after application
Procedure, shortened: as §3

[7] = test system: blackgrass; test: Test Example 5: herbicidal effect by foliage application, plastic box (Table 20, symbol J); assay type: in vivo, blackgrass (Alopecurus myosuroides); conditions: foliage application, three weeks after application
Procedure, shortened: as §3

[8] = test system: wild oat; test: Test Example 5: herbicidal effect by foliage application, plastic box (Table 20, symbol I); assay type: in vivo, wild oat (Avena fatua); conditions: foliage application, three weeks after application
Procedure, shortened: as §3

[9] = test system: persian speedwell; test: Test Example 5: herbicidal effect by foliage application, plastic box (Table 20, symbol R); assay type: in vivo, Persian speedwell (Veronica persica); conditions: foliage application, three weeks after application
Procedure, shortened: as §3

[10] = test system: rice flat sedge; test: Test Example 3: herbicidal effect by foliage application, Wagner pot (Table 18, symbol E); assay type: in vivo, rice flat sedge (Cyperus iria); conditions: 320 g/ha
Procedure, shortened: as §1

[11] = test system: windgrass; test: Test Example 5: herbicidal effect by foliage application, plastic box (Table 20, symbol L); assay type: in vivo, windgrass (Apera spica-venti); conditions: foliage application, three weeks after application
Procedure, shortened: as §3

[12] = test system: green foxtail; test: Test Example 5: herbicidal effect by foliage application, plastic box (Table 20, symbol G); assay type: in vivo, green foxtail (Setaria viridis); conditions: foliage application, three weeks after application
Procedure, shortened: as §3

[13] = test system: redroot pigweed; test: Test Example 4: herbicidal effect by soil treatment (Table 19, symbol N); assay type: in vivo, redroot pigweed (Amaranthus retroflexus); conditions: amount of applied herbicide 320 g/ha
Procedure, shortened: as §2

[14] = test system: barnyard grass; test: Test Example 3: herbicidal effect by foliage application, Wagner pot (Table 18, symbol H); assay type: in vivo, barnyard grass (Echinochloa crus-galli); conditions: 320 g/ha
Procedure, shortened: as §1

[15] = test system: windgrass; test: Test Example 4: herbicidal effect by soil treatment (Table 19, symbol L); assay type: in vivo, windgrass (Apera spica-venti); conditions: amount of applied herbicide 320 g/ha
Procedure, shortened: as §2

[16] = test system: Italian ryegrass; test: Test Example 4: herbicidal effect by soil treatment (Table 19, symbol K); assay type: in vivo, Italian ryegrass (Lolium multiflorum); conditions: amount of applied herbicide 320 g/ha
Procedure, shortened: as §2

[17] = test system: southern crabgrass; test: Test Example 4: herbicidal effect by soil treatment (Table 19, symbol F); assay type: in vivo, southern crabgrass (Digitaria ciliaris); conditions: amount of applied herbicide 320 g/ha
Procedure, shortened: as §2

[18] = test system: barnyard grass; test: Test Example 4: herbicidal effect by soil treatment (Table 19, symbol H); assay type: in vivo, barnyard grass (Echinochloa crus-galli); conditions: amount of applied herbicide 320 g/ha
Procedure, shortened: as §2

[19] = test system: Italian ryegrass; test: Test Example 5: herbicidal effect by foliage application, plastic box (Table 20, symbol K); assay type: in vivo, Italian ryegrass (Lolium multiflorum); conditions: foliage application, three weeks after application
Procedure, shortened: as §3

[20] = test system: velvetleaf; test: Test Example 5: herbicidal effect by foliage application, plastic box (Table 20, symbol M); assay type: in vivo, velvetleaf (Abutilon theophrasti); conditions: foliage application, three weeks after application
Procedure, shortened: as §3

[21] = test system: green foxtail; test: Test Example 4: herbicidal effect by soil treatment (Table 19, symbol G); assay type: in vivo, green foxtail (Setaria viridis); conditions: amount of applied herbicide 320 g/ha
Procedure, shortened: as §2

[22] = test system: southern crabgrass; test: Test Example 5: herbicidal effect by foliage application, plastic box (Table 20, symbol F); assay type: in vivo, southern crabgrass (Digitaria ciliaris); conditions: foliage application, three weeks after application
Procedure, shortened: as §3

[23] = test system: chickweed; test: Test Example 5: herbicidal effect by foliage application, plastic box (Table 20, symbol P); assay type: in vivo, common chickweed (Stellaria media); conditions: foliage application, three weeks after application
Procedure, shortened: as §3

[24] = test system: lambsquarters; test: Test Example 4: herbicidal effect by soil treatment (Table 19, symbol O); assay type: in vivo, lambsquarters (Chenopodium album); conditions: amount of applied herbicide 320 g/ha
Procedure, shortened: as §2

[25] = test system: false cleavers; test: Test Example 5: herbicidal effect by foliage application, plastic box (Table 20, symbol Q); assay type: in vivo, false cleavers (Galium spurium); conditions: foliage application, three weeks after application
Procedure, shortened: as §3

[26] = test system: velvetleaf; test: Test Example 4: herbicidal effect by soil treatment (Table 19, symbol M); assay type: in vivo, velvetleaf (Abutilon theophrasti); conditions: amount of applied herbicide 320 g/ha
Procedure, shortened: as §2

[27] = test system: lambsquarters; test: Test Example 5: herbicidal effect by foliage application, plastic box (Table 20, symbol O); assay type: in vivo, lambsquarters (Chenopodium album); conditions: foliage application, three weeks after application
Procedure, shortened: as §3

[28] = test system: wild oat; test: Test Example 4: herbicidal effect by soil treatment (Table 19, symbol I); assay type: in vivo, wild oat (Avena fatua); conditions: amount of applied herbicide 320 g/ha
Procedure, shortened: as §2

[29] = test system: blackgrass; test: Test Example 4: herbicidal effect by soil treatment (Table 19, symbol J); assay type: in vivo, blackgrass (Alopecurus myosuroides); conditions: amount of applied herbicide 320 g/ha
Procedure, shortened: as §2

SMILES: COc1ccc2c(-c3c(O)c(C)nn(C)c3=O)c(-c3ccc(F)cc3)sc2c1 [3-063]
- herbicidal effect on Chinese sprangletop (D) [1]: 0 (Herbicidal rate of 5% or less (almost no effect))
- P: chickweed, herbicidal effect grade [2]: 5 (Herbicidal rate of 90% or more (almost completely withered))
- Q: false cleavers, herbicidal effect grade [3]: 2 (Herbicidal rate of 20% or more and less than 40%)
- R: persian speedwell, herbicidal effect grade [4]: 5 (Herbicidal rate of 90% or more (almost completely withered))
- N: redroot pigweed, herbicidal effect grade ([5]; 320 g/ha): 4 (Herbicidal rate of 70% or more and less than 90%)
- H: barnyard grass, herbicidal effect grade ([6]; 320 g/ha): 0 (Herbicidal rate of 5% or less (almost no effect))
- J: blackgrass, herbicidal effect grade ([7]; 320 g/ha): 0 (Herbicidal rate of 5% or less (almost no effect))
- I: wild oat, herbicidal effect grade ([8]; 320 g/ha): 2 (Herbicidal rate of 20% or more and less than 40%)
- R: persian speedwell, herbicidal effect grade ([9]; 320 g/ha): 5 (Herbicidal rate of 90% or more (almost completely withered))
- herbicidal effect on rice flat sedge (E) [10]: 5 (Herbicidal rate of 90% or more (almost completely withered))
- L: windgrass, herbicidal effect grade ([11]; 320 g/ha): 2 (Herbicidal rate of 20% or more and less than 40%)
- G: green foxtail, herbicidal effect grade ([12]; 320 g/ha): 0 (Herbicidal rate of 5% or less (almost no effect))
- N: redroot pigweed, herbicidal effect grade [13]: 3 (Herbicidal rate of 40% or more and less than 70%)
- herbicidal effect on barnyard grass (H) [14]: 0 (Herbicidal rate of 5% or less (almost no effect))
- L: windgrass, herbicidal effect grade [15]: 0 (Herbicidal rate of 5% or less (almost no effect))
- K: Italian ryegrass, herbicidal effect grade [16]: 0 (Herbicidal rate of 5% or less (almost no effect))
- F: southern crabgrass, herbicidal effect grade [17]: 0 (Herbicidal rate of 5% or less (almost no effect))
- H: barnyard grass, herbicidal effect grade [18]: 0 (Herbicidal rate of 5% or less (almost no effect))
- K: Italian ryegrass, herbicidal effect grade ([19]; 320 g/ha): 3 (Herbicidal rate of 40% or more and less than 70%)
- M: velvetleaf, herbicidal effect grade ([20]; 320 g/ha): 5 (Herbicidal rate of 90% or more (almost completely withered))
- G: green foxtail, herbicidal effect grade [21]: 0 (Herbicidal rate of 5% or less (almost no effect))
- F: southern crabgrass, herbicidal effect grade ([22]; 320 g/ha): 0 (Herbicidal rate of 5% or less (almost no effect))
- P: chickweed, herbicidal effect grade ([23]; 320 g/ha): 5 (Herbicidal rate of 90% or more (almost completely withered))
- O: lambsquarters, herbicidal effect grade [24]: 5 (Herbicidal rate of 90% or more (almost completely withered))
- Q: false cleavers, herbicidal effect grade ([25]; 320 g/ha): 5 (Herbicidal rate of 90% or more (almost completely withered))
- M: velvetleaf, herbicidal effect grade [26]: 2 (Herbicidal rate of 20% or more and less than 40%)
- O: lambsquarters, herbicidal effect grade ([27]; 320 g/ha): 3 (Herbicidal rate of 40% or more and less than 70%)
- I: wild oat, herbicidal effect grade [28]: 1 (Herbicidal rate of 5% or more and less than 20%)
- J: blackgrass, herbicidal effect grade [29]: 0 (Herbicidal rate of 5% or less (almost no effect))

SMILES: CCCC(=O)Oc1c(C)nn(C)c(=O)c1-c1c(-c2ccc3c(c2)OC(F)(F)O3)sc2ccccc12 [1-100]
- herbicidal effect on D (Chinese sprangletop), rating 0-5 [1]: 0 (Herbicidal rate of 5% or less (almost no effect))
- herbicidal effect rating, P: chickweed [2]: 2 (Herbicidal rate of 20% or more and less than 40%)
- herbicidal effect rating, Q: false cleavers [3]: 2 (Herbicidal rate of 20% or more and less than 40%)
- herbicidal effect rating, R: persian speedwell [4]: 5 (Herbicidal rate of 90% or more (almost completely withered))
- N: redroot pigweed, herbicidal effect ([5]; AAH 320 g/ha): 0 (Herbicidal rate of 5% or less (almost no effect))
- H: barnyard grass, herbicidal effect ([6]; AAH 320 g/ha): 0 (Herbicidal rate of 5% or less (almost no effect))
- J: blackgrass, herbicidal effect ([7]; AAH 320 g/ha): 0 (Herbicidal rate of 5% or less (almost no effect))
- I: wild oat, herbicidal effect ([8]; AAH 320 g/ha): 1 (Herbicidal rate of 5% or more and less than 20%)
- R: persian speedwell, herbicidal effect ([9]; AAH 320 g/ha): 5 (Herbicidal rate of 90% or more (almost completely withered))
- herbicidal effect on E (rice flat sedge), rating 0-5 [10]: 4 (Herbicidal rate of 70% or more and less than 90%)
- L: windgrass, herbicidal effect ([11]; AAH 320 g/ha): 0 (Herbicidal rate of 5% or less (almost no effect))
- G: green foxtail, herbicidal effect ([12]; AAH 320 g/ha): 0 (Herbicidal rate of 5% or less (almost no effect))
- herbicidal effect rating, N: redroot pigweed [13]: 0 (Herbicidal rate of 5% or less (almost no effect))
- herbicidal effect on H (barnyard grass), rating 0-5 [14]: 0 (Herbicidal rate of 5% or less (almost no effect))
- herbicidal effect rating, L: windgrass [15]: 0 (Herbicidal rate of 5% or less (almost no effect))
- herbicidal effect rating, K: Italian ryegrass [16]: 3 (Herbicidal rate of 40% or more and less than 70%)
- herbicidal effect rating, F: southern crabgrass [17]: 0 (Herbicidal rate of 5% or less (almost no effect))
- herbicidal effect rating, H: barnyard grass [18]: 0 (Herbicidal rate of 5% or less (almost no effect))
- K: Italian ryegrass, herbicidal effect ([19]; AAH 320 g/ha): 1 (Herbicidal rate of 5% or more and less than 20%)
- M: velvetleaf, herbicidal effect ([20]; AAH 320 g/ha): 3 (Herbicidal rate of 40% or more and less than 70%)
- herbicidal effect rating, G: green foxtail [21]: 0 (Herbicidal rate of 5% or less (almost no effect))
- F: southern crabgrass, herbicidal effect ([22]; AAH 320 g/ha): 0 (Herbicidal rate of 5% or less (almost no effect))
- P: chickweed, herbicidal effect ([23]; AAH 320 g/ha): 5 (Herbicidal rate of 90% or more (almost completely withered))
- herbicidal effect rating, O: lambsquarters [24]: 0 (Herbicidal rate of 5% or less (almost no effect))
- Q: false cleavers, herbicidal effect ([25]; AAH 320 g/ha): 3 (Herbicidal rate of 40% or more and less than 70%)
- herbicidal effect rating, M: velvetleaf [26]: 0 (Herbicidal rate of 5% or less (almost no effect))
- O: lambsquarters, herbicidal effect ([27]; AAH 320 g/ha): 0 (Herbicidal rate of 5% or less (almost no effect))
- herbicidal effect rating, I: wild oat [28]: 0 (Herbicidal rate of 5% or less (almost no effect))
- herbicidal effect rating, J: blackgrass [29]: 0 (Herbicidal rate of 5% or less (almost no effect))
